Columns and labels:
[1] = tested on: Brassica alboglabra (kale/Chinese kale, BRSAG); test: Greenhouse postemergence application, visual injury after 20-22 d, BRSAG
Description: (§1) Seeds of the desired test plant species were planted in Sun Gro MetroMix® 306 planting mixture, which typically has a pH of 6.0 to 6.8 and an organic matter content of about 30 percent, in plastic pots with a surface area of 103.2 square centimeters (cm^2). […] The plants were grown for 7-36 days (d) in a greenhouse with an approximate 14-hour (h) photoperiod which was maintained at about 23° C. during the day and 22° C. during the night. Nutrients and water were added on a regular basis and supplemental lighting was provided with overhead metal halide 1000-Watt lamps as necessary. The plants were employed for testing when they reached the second or third true leaf stage.
(§2) An aliquot of formulated benzyl 4-amino-3-chloro-6-(4-chloro-2-fluoro-3-methoxyphenyl)-5-fluoropyridine-2-carboxylate (florpyrauxifen-benzyl; 300 grams active ingredient per liter (g ai/L) suspension concentrate (SC)) was placed in a 25 mL glass vial and diluted in a volume of 1.25% (v/v) aqueous Agri-dex crop oil concentrated to obtain a stock solution. […] The concentrated stock solutions were diluted with an aqueous mixture of 1.25% v/v of aqueous Agri-dex crop oil concentrate to provide the appropriate application rates. Compound requirements are based upon a 12 milliliter (mL) application volume at a rate of 187 liters per hectare (L/ha). Stock solutions of the formulated materials were prepared following the same procedure. Spray solutions of the compound mixtures were prepared by adding the stock solutions to the appropriate amount of dilution solution to form a 12 mL spray solution. Formulated compounds were applied to the plant material with an overhead Mandel track sprayer equipped with 8002E nozzles calibrated to deliver 187 L/ha over an application area of 0.503 square meters (m^2) at a spray height of 18 inches (43 centimeters (cm)) above average plant canopy. Control plants were sprayed in the same manner with the solvent blank.
(§3) The treated plants and control plants were placed in a greenhouse as described above and watered by sub-irrigation to prevent wash-off of the test compounds. After 20-22 d, the condition of the test plants as compared with that of the control plants was determined visually and scored on a scale of 0 to 100 percent where 0 corresponds to no injury and 100 corresponds to complete kill. Colby's equation was used to determine the herbicidal effects expected from the mixtures.
(§4) Benzyl 4-amino-3-chloro-6-(4-chloro-2-fluoro-3-methoxyphenyl)-5-fluoropyridine-2-carboxylate (florpyrauxifen-benzyl, 300 g ai/L SC) was combined in two-, three-, and four-way mixtures with one or more of the following: clopyralid-olamine (as Lontrel™ 35A Herbicidal Concentrate), quinclorac (as Facet 75DF), isoxadifen-ethyl (100 g/L SC), cloquintocet-mexyl (120 g/L EC) or mefenpyr-diethyl (as mefenpyr-diethyl 15WP). The mixtures were applied to kale/Chinese kale (Brassica alboglabra, BRSAG), Juncea canola or brown mustard (Brassica juncea, BRSJU), rutabaga (Brassica napus var. napobrassica, BRSNA), all varieties of canola and oilseed rape (Brassica napus, BRSNN), Nexera™ canola (Brassica napus, BRSNN-NEX), winter oilseed rape (Brassica napus, BRSNW), Roundup Ready® canola (Brassica napus, RR-BRSNN), and turnip or Polish canola (Brassica rapa, BRSRR), and the phytotoxicity of the compositions was measured.
(§5) Colby's equation was used to determine the herbicidal effects expected from the mixtures evaluated in the described trials (Colby, S. R. Calculation of the synergistic and antagonistic response of herbicide combinations. Weeds 1967, 15, 20-22.).
(§6) The following equation was used to calculate the expected activity of mixtures containing two active ingredients, A and B: Expected=A+B−(A×B/100) • A=observed efficacy of active ingredient A at the same concentration as used in the mixture; • B=observed efficacy of active ingredient B at the same concentration as used in the mixture.

[2] = tested on: Brassica napus (winter oilseed rape, BRSNW); test: Greenhouse postemergence application, visual injury after 20-22 d, BRSNW
Description: as §1, §2, §3, §4, §5, §6

[3] = tested on: Brassica rapa (turnip or Polish canola, BRSRR); test: Greenhouse postemergence application, visual injury after 20-22 d, BRSRR
Description: as §1, §2, §3, §4, §5, §6

[4] = tested on: Brassica napus (Roundup Ready canola, RR-BRSNN); test: Greenhouse postemergence application, visual injury after 20-22 d, RR-BRSNN
Description: as §1, §2, §3, §4, §5, §6

[5] = tested on: Brassica napus (all varieties of canola and oilseed rape, BRSNN); test: Greenhouse postemergence application, visual injury after 20-22 d, BRSNN
Description: as §1, §2, §3, §4, §5, §6

[6] = isoxadifen-ethyl 5 g ai/ha alone
[7] = isoxadifen-ethyl 10 g ai/ha alone
[8] = isoxadifen-ethyl 20 g ai/ha alone
[9] = isoxadifen-ethyl 40 g ai/ha alone
[10] = postemergence application, greenhouse, application rate (g ai/ha) varies

CCOC(=O)C1=NOC(c2ccccc2)(c2ccccc2)C1 [Isoxadifen-ethyl, ethyl 4,5-dihydro-5,5-diphenyl-1,2-oxazole-3-carboxyalte]
0%: % Visual Injury Obs ([1]; BRSAG, 5 g ai/ha) | % Visual Injury Obs ([1]; BRSAG, 10 g ai/ha) | % Visual Injury Obs ([1]; BRSAG, 20 g ai/ha) | % Visual Injury Obs ([1]; BRSAG, 40 g ai/ha) | Obs % visual injury ([1]; BRSAG, partner alone 5 g ai/ha) | Obs % visual injury ([1]; BRSAG, partner alone 10 g ai/ha) | Obs % visual injury ([1]; BRSAG, partner alone 20 g ai/ha) | Obs % visual injury ([1]; BRSAG, partner alone 40 g ai/ha) | % Visual Injury Obs [1, 6] | % Visual Injury Obs [1, 7] | % Visual Injury Obs [1, 8] | % Visual Injury Obs [1, 9] | % Visual Injury BRSAG Obs [1, 10] | % Visual Injury Obs ([2]; BRSNW, 5 g ai/ha) | % Visual Injury Obs ([2]; BRSNW, 10 g ai/ha) | % Visual Injury Obs ([2]; BRSNW, 20 g ai/ha) | % Visual Injury Obs ([2]; BRSNW, 40 g ai/ha) | Obs % visual injury ([2]; BRSNW, partner alone 5 g ai/ha) | Obs % visual injury ([2]; BRSNW, partner alone 10 g ai/ha) | Obs % visual injury ([2]; BRSNW, partner alone 20 g ai/ha) | Obs % visual injury ([2]; BRSNW, partner alone 40 g ai/ha) | % Visual Injury Obs [2, 6] | % Visual Injury Obs [2, 7] | % Visual Injury Obs [2, 8] | % Visual Injury Obs [2, 9] | % Visual Injury BRSNW Obs [2, 10] | % Visual Injury Obs ([3]; BRSRR, 5 g ai/ha) | % Visual Injury Obs ([3]; BRSRR, 10 g ai/ha) | % Visual Injury Obs ([3]; BRSRR, 20 g ai/ha) | % Visual Injury Obs ([3]; BRSRR, 40 g ai/ha) | Obs % visual injury ([3]; BRSRR, partner alone 5 g ai/ha) | Obs % visual injury ([3]; BRSRR, partner alone 10 g ai/ha) | Obs % visual injury ([3]; BRSRR, partner alone 20 g ai/ha) | Obs % visual injury ([3]; BRSRR, partner alone 40 g ai/ha) | % Visual Injury Obs [3, 6] | % Visual Injury Obs [3, 7] | % Visual Injury Obs [3, 8] | % Visual Injury Obs [3, 9] | % Visual Injury BRSRR Obs [3, 10] | % Visual Injury Obs ([4]; RR-BRSNN, 5 g ai/ha) | % Visual Injury Obs ([4]; RR-BRSNN, 10 g ai/ha) | % Visual Injury Obs ([4]; RR-BRSNN, 20 g ai/ha) | % Visual Injury Obs ([4]; RR-BRSNN, 40 g ai/ha) | Obs % visual injury ([4]; RR-BRSNN, partner alone 5 g ai/ha) | Obs % visual injury ([4]; RR-BRSNN, partner alone 10 g ai/ha) | Obs % visual injury ([4]; RR-BRSNN, partner alone 20 g ai/ha) | Obs % visual injury ([4]; RR-BRSNN, partner alone 40 g ai/ha) | % Visual Injury Obs [4, 6] | % Visual Injury Obs [4, 7] | % Visual Injury Obs [4, 8] | % Visual Injury Obs [4, 9] | % Visual Injury RR-BRSNN Obs [4, 10] | % Visual Injury Obs ([5]; BRSNN, 5 g ai/ha) | % Visual Injury Obs ([5]; BRSNN, 10 g ai/ha) | % Visual Injury Obs ([5]; BRSNN, 20 g ai/ha) | % Visual Injury Obs ([5]; BRSNN, 40 g ai/ha) | Obs % visual injury ([5]; BRSNN, partner alone 5 g ai/ha) | Obs % visual injury ([5]; BRSNN, partner alone 10 g ai/ha) | Obs % visual injury ([5]; BRSNN, partner alone 20 g ai/ha) | Obs % visual injury ([5]; BRSNN, partner alone 40 g ai/ha) | % Visual Injury Obs [5, 6] | % Visual Injury Obs [5, 7] | % Visual Injury Obs [5, 8] | % Visual Injury Obs [5, 9] | % Visual Injury BRSNN Obs [5, 10]

Source: US10219513B2, “Safening 4-amino-3-chloro-6-(4-chloro-2-fluoro-3-methoxyphenyl)-5-fluoropyridine-2-carboxylic acid compositions in Brassica species and methods of use thereof” (Dow AgroSciences LLC, priority 2016, dated 2019)
